US9409884B2 (Rigel Pharmaceuticals, Inc., priority 2012, dated 2016)

Biological target: AMPK
Test: AMPK activation, enzyme-linked immunosorbent assay
Type: biochemical
Conditions: Table 12, compounds of Table 5
Method in brief: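 AMPK activation by test compounds was measured by enzyme-linked immunosorbent assay.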

| SMILES | EC50 [nM] |
| --- | --- |
| O=C(NC1CCN(Cc2ccccc2)CC1)c1ccc(OC2CCN(Cc3ccc(Cl)c(Cl)c3)CC2)c(Cl)c1 [Compound 5-84, N-(1-benzylpiperidin-4-yl)-3-chloro-4-(1-(3,4-dichlorobenzyl)piperidin-4-yloxy)benzamide] | < 1000 |
| N#Cc1ccc(CN2CCC(Oc3ccc(C(=O)NC4CCN(Cc5ccccn5)CC4)cc3)CC2)cc1 [Compound 5-85, 4-(1-(4-cyanobenzyl)piperidin-4-yloxy)-N-(1-(pyridin-2-ylmethyl)piperidin-4-yl)benzamide] | < 1000 |
| O=C(NC1CCN(Cc2ccncc2)CC1)c1cccc(OC2CCN(c3ccc(C(F)(F)F)cc3)CC2)c1 [Compound 5-87, N-(1-(pyridin-4-ylmethyl)piperidin-4-yl)-3-(1-(4-(trifluoromethyl)phenyl)piperidin-4-yloxy)benzamide] | < 1000 |
| N#Cc1cccc(CN2CCC(Oc3cccc(C(=O)NC4CCN(Cc5ccccc5)CC4)c3)CC2)c1 [Compound 5-89, N-(1-benzylpiperidin-4-yl)-3-(1-(3-cyanobenzyl)piperidin-4-yloxy)benzamide] | 1000 to 10000 |
| CC(C)(C)OC(=O)N1CCC(Oc2ccc(C(=O)NC3CCN(Cc4ccccc4)CC3)cc2Cl)CC1 [Compound 5-90, tert-butyl 4-(4-(1-benzylpiperidin-4-ylcarbamoyl)-2-chlorophenoxy) piperidine-1-carboxylate] | 1000 to 10000 |
| CC(C)(C)OC(=O)N1CCC(Oc2ccc(C(=O)NC3CCN(Cc4ccccc4)CC3)cc2F)CC1 [Compound 5-92, tert-butyl 4-(4-(1-benzylpiperidin-4-ylcarbamoyl)-2-fluorophenoxy) piperidine-1-carboxylate] | 1000 to 10000 |
| O=C(NC1CCN(Cc2ccccc2)CC1)c1ccc(OC2CCNCC2)c(Cl)c1 [Compound 5-93, N-(1-benzylpiperidin-4-yl)-3-chloro-4-(piperidin-4-yloxy)benzamide] | > 100000 |
| COc1cc(C(=O)NCCCNC(=O)OC(C)(C)C)ccc1OC1CCN(Cc2ccc(C(F)(F)F)cc2)CC1 [Compound 5-94, tert-butyl 3-(3-methoxy-4-(1-(4-(trifluoromethyl)benzyl)piperidin-4-yloxy)benzamido) propylcarbamate] | < 1000 |
| CC(C)(C)OC(=O)NCCCNC(=O)c1ccc(OC2CCN(Cc3ccc(C(F)(F)F)cc3)CC2)cc1 [Compound 5-95, tert-butyl 3-(4-(1-(4-(trifluoromethyl)benzyl)piperidin-4-yloxy)benzamido) propylcarbamate] | < 1000 |
| COc1ccc(CN2CCC(Oc3ccc(C(=O)NCCCNC(=O)OC(C)(C)C)cc3Cl)CC2)cc1 [Compound 5-97, tert-butyl 3-(3-chloro-4-(1-(4-methoxybenzyl)piperidin-4-yloxy)benzamido) propylcarbamate] | 1000 to 10000 |
| O=C(NCCCN1CCOCC1)c1ccc(OC2CCN(Cc3ccc(Cl)cc3)CC2)cc1 [Compound 5-100, 4-(1-(4-chlorobenzyl)piperidin-4-yloxy)-N-(3-morpholinopropyl)benzamide] | 1000 to 10000 |
| CC(C)(C)OC(=O)NCCCNC(=O)c1ccc(OC2CCN(Cc3ccccc3)CC2)c(Cl)c1 [Compound 5-102, tert-butyl 3-(4-(1-benzylpiperidin-4-yloxy)-3-chlorobenzamido) propylcarbamate] | 10000 to 20000 |
| COc1ccc(CN2CCC(NC(=O)c3cccc(OC4CCN(Cc5ccc(-c6ccccn6)cc5)CC4)c3)CC2)cc1 [Compound 5-106, N-(1-(4-methoxybenzyl)piperidin-4-yl)-3-(1-(4-(pyridin-2-yl)benzyl)piperidin-4-yloxy)benzamide] | < 1000 |
| COc1ccc(CN2CCC(NC(=O)c3cccc(OC4CCN(Cc5ccc(C(F)(F)F)cc5)CC4)c3)CC2)cc1 [Compound 5-108, N-(1-(4-methoxybenzyl)piperidin-4-yl)-3-(1-(4-(trifluoromethyl)benzyl)piperidin-4-yloxy)benzamide] | < 1000 |
| COc1ccc(CN2CCC(NC(=O)c3cccc(OC4CCN(Cc5ccc(N6CCOCC6)cc5)CC4)c3)CC2)cc1 [Compound 5-109, N-(1-(4-methoxybenzyl)piperidin-4-yl)-3-(1-(4-morpholinobenzyl)piperidin-4-yloxy)benzamide] | < 1000 |
| COC(=O)c1ccc(CN2CCC(Oc3cccc(C(=O)NC4CCN(Cc5ccc(OC)cc5)CC4)c3)CC2)cc1 [Compound 5-112, methyl 4-((4-(3-(l-(4-methoxybenzyl)piperidin-4-ylcarbamoyl)phenoxy)piperidin-1-yl)methyl)benzoate] | 1000 to 10000 |
| N#Cc1ccc(CN2CCC(NC(=O)c3cccc(OC4CCN(Cc5ccc(Oc6ccccc6)cc5)CC4)c3)CC2)cc1 [Compound 5-117, N-(1-(4-cyanobenzyl)piperidin-4-yl)-3-(1-(4-phenoxybenzyl)piperidin-4-yloxy)benzamide] | < 1000 |

More lines, now with the values ahead:

| EC50 [nM] | SMILES |
| --- | --- |
| < 1000 | N#Cc1ccc(CN2CCC(Oc3ccc(C(=O)NC4CCN(Cc5ccncc5)CC4)cc3)CC2)cc1 [Compound 5-83, 4-(1-(4-cyanobenzyl)piperidin-4-yloxy)-N-(1-(pyridin-4-ylmethyl)piperidin-4-yl)benzamide] |
| < 1000 | O=C(NC1CCN(Cc2ccccc2)CC1)c1cccc(OC2CCN(c3ccccn3)CC2)c1 [Compound 5-86, N-(1-benzylpiperidin-4-yl)-3-(1-(pyridin-2-yl)piperidin-4-yloxy)benzamide] |
| 1000 to 10000 | N#Cc1ccc(N2CCC(Oc3cccc(C(=O)NC4CCN(Cc5ccncc5)CC4)c3)CC2)cc1 [Compound 5-88, N-(1-(pyridin-4-ylmethyl)piperidin-4-yl)-3-(1-(4-cyanophenyl)piperidin-4-yloxy)benzamide] |
| < 1000 | CC(C)(C)C(=O)N1CCC(Oc2ccc(C(=O)NC3CCN(Cc4ccccc4)CC3)cc2Cl)CC1 [Compound 5-91, N-(1-benzylpiperidin-4-yl)-3-chloro-4-(1-pivaloylpiperidin-4-yloxy)benzamide] |
| 1000 to 10000 | COc1ccc(CN2CCC(Oc3ccc(C(=O)N4CCN(C(=O)OC(C)(C)C)CC4)cc3)CC2)cc1 [Compound 5-96, tert-butyl 4-(4-(1-(4-methoxybenzyl)piperidin-4-yloxy)benzoyl)piperazine-1-carboxylate] |
| 1000 to 10000 | COc1cc(C(=O)NCCCN2CCOCC2)ccc1OC1CCN(Cc2ccc(Cl)cc2)CC1 [Compound 5-98, 4-(1-(4-chlorobenzyl)piperidin-4-yloxy)-4-methoxy-N-(3-morpholinopropyl)benzamide] |
| 1000 to 10000 | CC(C)(C)OC(=O)N1CCN(C(=O)c2ccc(OC3CCN(Cc4ccccc4)CC3)cc2)CC1 [Compound 5-99, tert-butyl 4-(4-(1-benzylpiperidin-4-yloxy)benzoyl)piperazine-1-carboxylate] |
| 10000 to 20000 | COc1ccc(CN2CCC(Oc3ccc(C(=O)NCCCN4CCOCC4)cc3Cl)CC2)cc1 [Compound 5-101, 3-chloro-4-(1-(4-methoxybenzyl)piperidin-4-yloxy)-N-(3-morpholinopropyl)benzamide] |
| 20000 to 50000 | O=C(c1ccc(OC2CCN(Cc3ccccc3)CC2)cc1)N1CCN(c2ccccc2)CC1 [Compound 5-103, (4-(1-benzylpiperidin-4-yloxy)phenyl)(4-phenylpiperazin-l-yl)methanone] |
| 10000 to 20000 | Cc1ccc(CN2CCC(Oc3ccc(C(=O)NCCCN4CCOCC4)cc3)CC2)cc1 [Compound 5-104, 4-(1-(4-methylbenzyl)piperidin-4-yloxy)-N-(3-morpholinopropyl)benzamide] |
| 10000 to 20000 | O=C(c1ccc(OC2CCN(Cc3ccccc3)CC2)cc1)N1CCN(Cc2ccccn2)CC1 [Compound 5-105, (4-(1-benzylpiperidin-4-yloxy)phenyl)(4-(pyridin-2-ylmethyl)piperazin-1-yl)methanone] |
| < 1000 | COc1ccc(CN2CCC(NC(=O)c3cccc(OC4CCN(Cc5ccc(OC)cc5)CC4)c3)CC2)cc1 [Compound 5-107, N-(1-(4-methoxybenzyl)piperidin-4-yl)-3-(1-(4-methoxybenzyl)piperidin-4-yloxy)benzamide] |
| < 1000 | COc1ccc(CN2CCC(NC(=O)c3cccc(OC4CCN(CC5CCN(c6ccccc6)CC5)CC4)c3)CC2)cc1 [Compound 5-110, N-(1-(4-methoxybenzyl)piperidin-4-yl)-3-(1-((1-phenylpiperidin-4-yl)methyl)piperidin-4-yloxy)benzamide] |
| < 1000 | COc1ccc(CN2CCC(NC(=O)c3cccc(OC4CCN(Cc5cnn(-c6ccc(F)cc6)c5)CC4)c3)CC2)cc1 [Compound 5-111, 3-(1-((1-(4-fluorophenyl)-1H-pyrazol-4-yl)methyl)piperidin-4-yloxy)-N-(1-(4-methoxybenzyl)piperidin-4-yl)benzamide] |
| < 1000 | COc1ccc(CN2CCC(NC(=O)c3cccc(OC4CCN(Cc5ccc(Oc6ccc(C#N)cc6)cc5)CC4)c3)CC2)cc1 [Compound 5-113, 3-(1-(4-(4-cyanophenoxy)benzyl)piperidin-4-yloxy)-N-(1-(4-methoxybenzyl)piperidin-4-yl)benzamide] |
| 1000 to 10000 | COc1ccc(CN2CCC(NC(=O)c3cccc(OC4CCN(Cc5cnn(-c6ccccn6)c5)CC4)c3)CC2)cc1 [Compound 5-114, N-(1-(4-methoxybenzyl)piperidin-4-yl)-3-(1-((1-(pyridin-2-yl)-1H-pyrazol-4-yl)methyl)piperidin-4-yloxy)benzamide] |
| < 1000 | N#Cc1ccc(CN2CCC(NC(=O)c3cccc(OC4CCN(c5ccc(C#N)cc5)CC4)c3)CC2)cc1 [Compound 5-115, N-(1-(4-cyanobenzyl)piperidin-4-yl)-3-(1-(4-cyanophenyl)piperidin-4-yloxy)benzamide] |
| < 1000 | N#Cc1ccc(CN2CCC(NC(=O)c3cccc(OC4CCN(Cc5ccc(N6CCCC6)cc5)CC4)c3)CC2)cc1 [Compound 5-116, N-(1-(4-cyanobenzyl)piperidin-4-yl)-3-(1-(4-(pyrrolidin-1-yl)benzyl)piperidin-4-yloxy)benzamide] |
| < 1000 | N#Cc1ccc(CN2CCC(NC(=O)c3cccc(OC4CCN(Cc5ccc(-c6ccccn6)cc5)CC4)c3)CC2)cc1 [Compound 5-118, N-(1-(4-cyanobenzyl)piperidin-4-yl)-3-(1-(4-(pyridin-2-yl)benzyl)piperidin-4-yloxy)benzamide] |
| < 1000 | N#Cc1ccc(CN2CCC(NC(=O)c3cccc(OC4CCN(Cc5ccc(-n6cccn6)cc5)CC4)c3)CC2)cc1 [Compound 5-119, 3-(l-(4-(lH-pyrazol-1-yl)benzyl)piperidin-4-yloxy)-N-(1-(4-cyanobenzyl)piperidin-4-yl)benzamide] |
